In patent US8003785B2 (Takeda Pharmaceutical Company Limited, priority 2008, dated 2011):

Biological target: T1, PLK1 (Homo sapiens, UniProt P53350)
T1 construct: Full-length, active GST-PLK1 is purified from Sf9 insect cells; made in house; host or cells: Sf9 insect cells
Assay: Biochemical Characterization Assay: HTRF kinase assay, GST-PLK1 phosphorylation of GST-p53
Settings: GST-PLK1, GST-p53 substrate
In short: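 HTRF read-out of p53 phosphorylation: after EDTA stop, anti-phospho-p53 antibody bound 30 min at 37 °C in HEPES pH 7 buffer, with Eu-anti-rabbit/APC-anti-GST detection. Kinase step used full-length Sf9-expressed GST-PLK1 (3 ug/mL) and E. coli GST-p53 substrate, 35 min at 37 °C.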

T1 sequence (P53350 whole entry): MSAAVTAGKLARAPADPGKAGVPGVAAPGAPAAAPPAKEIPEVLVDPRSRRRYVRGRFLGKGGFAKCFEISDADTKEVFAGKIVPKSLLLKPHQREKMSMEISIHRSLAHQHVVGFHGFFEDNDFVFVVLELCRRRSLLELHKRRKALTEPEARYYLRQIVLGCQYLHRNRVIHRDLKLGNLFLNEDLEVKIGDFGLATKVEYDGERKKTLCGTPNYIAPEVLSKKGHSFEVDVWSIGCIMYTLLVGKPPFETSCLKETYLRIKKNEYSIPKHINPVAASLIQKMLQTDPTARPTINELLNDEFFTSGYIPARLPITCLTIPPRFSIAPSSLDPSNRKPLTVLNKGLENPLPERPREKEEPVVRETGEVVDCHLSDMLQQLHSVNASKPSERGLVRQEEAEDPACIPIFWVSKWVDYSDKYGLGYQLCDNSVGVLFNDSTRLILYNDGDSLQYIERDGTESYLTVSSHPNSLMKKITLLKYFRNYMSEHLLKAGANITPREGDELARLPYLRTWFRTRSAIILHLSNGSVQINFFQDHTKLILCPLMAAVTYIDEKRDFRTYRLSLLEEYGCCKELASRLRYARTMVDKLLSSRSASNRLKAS

SMILES | IC50 [nM]
CCCN1C(=O)C(F)(F)CN(C2CCCC2)c2nc(Nc3ccc(C(N)=O)cc3OC)ncc21 [Example I-163, 4-(9-cyclopentyl-7,7-difluoro-6-oxo-5-propyl-6,7,8,9-tetrahydro-5H-pyrimido[4,5-b][1,4]diazepin-2-ylamino)-3-methoxy-benzamide] | 500 to 5000
COc1cc(C(=O)NCCN(C)C)ccc1Nc1ncc2c(n1)N(C1CCCCC1)CC(F)(F)C(=O)N2C [Example I-253, 4-(9-cyclohexyl-7,7-difluoro-5-methyl-6-oxo-6,7,8,9-tetrahydro-5H-pyrimido[4,5-b][1,4]diazepin-2-ylamino)-N-(2-dimethylamino-ethyl)-3-methoxy-benzamide] | 1 to 50
COc1cc(C(=O)N[C@H]2CC[C@H](N3CCN(CC4CC4)CC3)CC2)ccc1Nc1ncc2c(n1)N(C(C)C)CC(F)(F)C(=O)N2C [Example I-302, N-[trans-4-(4-cyclopropylmethyl-piperazin-1-yl)-cyclohexyl]-4-(7,7-difluoro-9-isopropyl-5-methyl-6-oxo-6,7,8,9-tetrahydro-5H-pyrimido[4,5-b][1,4]diazepin-2-ylamino)-3-methoxy-benzamide] | 1 to 50
CNC(=O)c1ccc(Nc2ncc3c(n2)N(C2CCCC2)CC(F)(F)C(=O)N3C)c(F)c1 [Example I-228, 4-(9-cyclopentyl-7,7-difluoro-5-methyl-6-oxo-6,7,8,9-tetrahydro-5H-pyrimido[4,5-b][1,4]diazepin-2-ylamino)-3-fluoro-N-methyl-benzamide] | 1 to 50
CCCN1C(=O)C(F)(F)CN(C2CCCC2)c2nc(Nc3ccc(C(=O)NCCCN(C)C)cc3OC)ncc21 [Example I-166, 4-(9-cyclopentyl-5-propyl-7,7-difluoro-6-oxo-6,7,8,9-tetra-hydro-5H-pyrimido[4,5-b][1,4]diazepin-2-ylamino)-N-(3-dimethylamino-propyl)-3-methoxy-benzamide] | 51 to 500
CCc1cc(C(=O)NCCN(C)C)ccc1Nc1ncc2c(n1)N(C1CCCC1)CC(F)(F)C(=O)N2C [Example I-198, 4-(9-cyclopentyl-7,7-difluoro-5-methyl-6-oxo-6,7,8,9-tetrahydro-5H-pyrimido[4,5-b][1,4]diazepin-2-ylamino)-N-(2-dimethylamino-ethyl)-3-ethyl-benzamide] | 1 to 50
COc1cc(C(=O)NC2CCOCC2)ccc1Nc1ncc2c(n1)N(CCc1cccs1)CC(F)(F)C(=O)N2C [Example I-274, 4-[7,7-difluoro-5-methyl-6-oxo-9-(2-thiophen-2-yl-ethyl)-6,7,8,9-tetrahydro-5H-pyrimido[4,5-b][1,4]diazepin-2-ylamino]-3-methoxy-N-(tetrahydro-pyran-4-yl)-benzamide] | 51 to 500
COc1cc(C(=O)NCCCN(C)C)ccc1Nc1ncc2c(n1)N(CCc1cccs1)CC(F)(F)C(=O)N2C [Example I-273, 4-[7,7-difluoro-5-methyl-6-oxo-9-(2-thiophen-2-yl-ethyl)-6,7,8,9-tetrahydro-5H-pyrimido[4,5-b][1,4]diazepin-2-ylamino]-N-(3-dimethylamino-propyl)-3-methoxy-benzamide] | 1 to 50
Cc1cc(C(=O)NCCN(C)C)ccc1Nc1ncc2c(n1)N(C1CCCC1)CC(F)(F)C(=O)N2C [Example I-188, 4-(9-cyclopentyl-7,7-difluoro-5-methyl-6-oxo-6,7,8,9-tetrahydro-5H-pyrimido[4,5-b][1,4]diazepin-2-ylamino)-N-(2-dimethylamino-ethyl)-3-methyl-benzamide] | 1 to 50
COc1cc(C(=O)NC2CCN(C)CC2)ccc1Nc1ncc2c(n1)N(C1CCCCC1)CC(F)(F)C(=O)N2C [Example I-247, 4-(9-cyclohexyl-7,7-difluoro-5-methyl-6-oxo-6,7,8,9-tetrahydro-5H-pyrimido[4,5-b][1,4]diazepin-2-ylamino)-3-methoxy-N-(1-methyl-piperidin-4-yl)-benzamide] | 1 to 50
COc1cc(C(=O)O)ccc1Nc1ncc2c(n1)N(CCCc1ccccc1)CC(F)(F)C(=O)N2C [Example I-281, 4-[7,7-difluoro-5-methyl-6-oxo-9-(3-phenyl-propyl)-6,7,8,9-tetrahydro-5H-pyrimido[4,5-b][1,4]diazepin-2-ylamino]-3-methoxy-benzoic acid] | 51 to 500

Same assay, conditions: GST-PLK1, GST-p53 substrate, ATP

SMILES | IC50 [nM]
COc1cc(C(=O)NCCCN2CCCC2)ccc1Nc1ncc2c(n1)N(C1CCCC1)CC(F)(F)C(=O)N2C [Example I-80, 4-(9-cyclopentyl-7,7-difluoro-5-methyl-6-oxo-6,7,8,9-tetrahydro-5H-pyrimido[4,5-b][1,4]diazepin-2-ylamino)-3-methoxy-N-(3-pyrrolidin-1-yl-propyl)-benzamide] | 1 to 50
COc1cc(C(=O)NCCCNC(=O)OCC2c3ccccc3-c3ccccc32)ccc1Nc1ncc2c(n1)N(C1CCCC1)CC(F)(F)C(=O)N2C [Example I-73, {3-[4-(9-cyclopentyl-7,7-difluoro-5-methyl-6-oxo-6,7,8,9-tetrahydro-5H-pyrimido[4,5-b][1,4]diazepin-2-ylamino)-3-methoxy-benzoylamino]-propyl}-carbamic acid 9H-fluoren-9-ylmethyl ester] | 51 to 500
CCN1C(=O)C(F)(F)CN(C2CCCC2)c2nc(Nc3ccc(C(N)=O)cc3OC)ncc21 [Example I-157, 4-(9-cyclopentyl-5-ethyl-7,7-difluoro-6-oxo-6,7,8,9-tetrahydro-5H-pyrimido[4,5-b][1,4]diazepin-2-yl-amino)-3-methoxy-benzamide] | 500 to 5000
COc1cc(C(=O)NC2CCNCC2)ccc1Nc1ncc2c(n1)N(C1CCC1)CC(F)(F)C(=O)N2C [Example I-5, 4-(9-cyclobutyl-7,7-difluoro-5-methyl-6-oxo-6,7,8,9-tetrahydro-5H-pyrimido[4,5-b][1,4]diazepin-2-ylamino)-3-methoxy-N-piperidin-4-yl-benzamide] | 1 to 50
COc1cc(C(=O)NC2CCN(C(=O)OC(C)(C)C)CC2)ccc1Nc1ncc2c(n1)N(C1CCCC1)CC(F)(F)C(=O)N2C [Example I-71, 4-[4-(9-cyclopentyl-7,7-difluoro-5-methyl-6-oxo-6,7,8,9-tetrahydro-5H-pyrimido[4,5-b][1,4]diazepin-2-ylamino)-3-methoxy-benzoylamino]-piperidine-1-carboxylic acid tert-butyl ester] | 51 to 500
COc1cc(C(=O)NCCN(C)C)ccc1Nc1ncc2c(n1)N(C1CCC1)CC(F)(F)C(=O)N2C [Example I-8, 4-(9-cyclobutyl-7,7-difluoro-5-methyl-6-oxo-6,7,8,9-tetrahydro-5H-pyrimido[4,5-b][1,4]diazepin-2-ylamino)-N-(2-dimethylamino-ethyl)-3-methoxy-benzamide] | 1 to 50
CCN(CC)CCCNC(=O)c1ccc(Nc2ncc3c(n2)N(C2CCCC2)CC(F)(F)C(=O)N3C)c(OC)c1 [Example I-123, 4-(9-cyclopentyl-7,7-difluoro-5-methyl-6-oxo-6,7,8,9-tetrahydro-5H-pyrimido[4,5-b][1,4]diazepin-2-ylamino)-N-(3-diethylamino-propyl)-3-methoxy-benzamide] | 1 to 50
COc1cc(C(=O)NCc2ccccc2)ccc1Nc1ncc2c(n1)N(C1CCCC1)CC(F)(F)C(=O)N2C [Example I-35, N-benzyl-4-(9-cyclopentyl-7,7-difluoro-5-methyl-6-oxo-6,7,8,9-tetrahydro-5H-pyrimido[4,5-b][1,4]diazepin-2-ylamino)-3-methoxy-benzamide] | 51 to 500
